Laboratory results: patent US20250090502A1, “METHODS OF TREATING, AMELIORATING, AND/OR PREVENTING BACTERIAL INFECTION, OR METHODS OF REDUCING ADVERSE EFFECTS CAUSED BY BACTERIA” (Drexel University, priority 2023, published 2025)
“Also recorded” adds a separate entry of the source.

What was measured:
S. aureus = test: Hemolytic activity of S. aureus culture supernatants on sheep's blood agar; type: cell-based, Staphylococcus aureus; settings: S. aureus cultures incubated with HEJ14 (125 μM) for 24 hrs vs vehicle
Method: S. aureus broth cultures were incubated with vehicle or HEJ14 (125 μM) for 24 hrs. The supernatants were filter sterilized (0.2 μm) and 5 μL plated in serial dilutions on 5% sheep's blood agar, starting with V1 (vehicle treated plate) and R1 (HEJ14 treated plate).

[1] = tested on: methicillin-resistant S. aureus (MRSA) (strain USA300 LAC::lux); test: Mouse model of S. aureus intradermal infection (MRSA USA300 LAC::lux); type: in vivo, mice; settings: single dose of 125 μM or 250 μM HEJ14 at time of infection, day 3, vs vehicle, dose-dependent
Method: The dorsal skin surfaces of anesthetized mice were shaved; a 100 μL volume of 3×10^7 CFU of methicillin-resistant S. aureus (MRSA) (strain USA300 LAC::lux) was injected intradermally with, from left to right, vehicle, 125 μM of HEJ14, or 250 μM of HEJ14. FIG. 8A: Digital photographs of dorsal lesions. FIG. 8B: Digital bioluminescent signals of S. aureus. FIG. 8C: images from FIG. 8A were analyzed using Image J to obtain total lesion areas. FIG. 8D Images from FIG. 8B were analyzed by Image J to determine bacterial burden based on photon count.
To investigate the efficacy of a RelA inhibitor against in vivo bacterial infections, the present study employed an established mouse model of S. aureus intradermal infection with the community-associated methicillin-resistant S. aureus infections (CA-MRSA) bioluminescent strain USA300 LAC::lux (Marchitto et al., Proc Natl Acad Sci USA 2019; 116:10917-26; Alphonse et al., Sci Transl Med 2021; 13.; Wang et al., Nat Med 2007; 13:1510-4.; Dong et al., Immunity 2022; 55:1645-62.e7).

P. aeruginosa [2] = test: Pyocyanin toxin production by P. aeruginosa cultures; type: cell-based; settings: P. aeruginosa culture, single agent
From the text: FIG. 4 illustrates certain aspects of the effect of HEJ14 on pyocyanin toxin production by the Gram-negative bacteria P. aeruginosa, in accordance with some embodiments. […] The bar chart illustrates the effect of HEJ14 on pyocyanin by P. aeruginosa at various HEJ14 concentrations.
Unexpectedly, the present study discovered that some of the hit compounds, as single agents, inhibited pyocyanin toxin production (FIG. 4) in the Gram-negative pathogen P. aeruginosa at higher specific activities (nanomolar) than required for RelA inhibition. Thus, the present study pursued a bipartite strategy of developing the compounds to treat biofilms, and to “convert” pathogens to commensals.

Escherichia coli C = test: E. coli C aggregation under stress conditions; type: cell-based; settings: high salt, low temperature and amino acid starvation
From the text: Bottom panels: Micrographs of the aggregates (or the lack thereof in the case of HEJ14 treated sample).
E. coli C, when under certain stress conditions, aggregates together and forms highly robust biofilms from a planktonic culture. It was hypothesized that inhibition of RelA would limit aggregation of E. coli C.

P. aeruginosa [3] = test: Wax worm model: larvae injected with live P. aeruginosa and HEJ14; type: in vivo; settings: 48 hours post-injection; live P. aeruginosa (10^5 CFU) injected simultaneously with single bolus of 50 μM HEJ14
Method: (§1) FIG. 5A: HEJ14 reduced toxin production of P. aeruginosa. The label “DMSO 48 h” above the dish indicate that the larvae were injected with supernatant of P. aeruginosa culture grown with DMSO carrier only. […] Kaplan Meier Plot showing increased survival of wax worms receiving supernatant from HEJ14 treated P. aeruginosa culture. FIG. 5B: HEJ14 protected wax worm larvae from the lethality caused by P. aeruginosa infection. In FIG. 5B, larvae were injected with either live P. aeruginosa (10^5 CFU) and HEJ14, or the live bacteria and DMSO carrier only. Right dish: Larvae were injected with live P. aeruginosa (10^5 CFU) & 50 μM HEJ14. The Kaplan Meier Plot showing increased survival of wax worms receiving HEJ14 treated P. aeruginosa.
(§2) Similarly, HEJ14 protected the larvae for 48 hours when live P. aeruginosa were injected simultaneously with a single bolus of HEJ14 (FIG. 5B).

P. aeruginosa [4] = test: Wax worm model: larvae injected with supernatant of P. aeruginosa cultures grown with HEJ14; type: in vivo; settings: larvae injected with supernatant of cultures treated with HEJ14 during growth vs untreated culture supernatants
Method: as §1, §2

Staphylococcus aureus = test: S. aureus in vitro growth kinetics (OD600); type: cell-based; settings: stationary phase; HEJ14 125-500 μM, 24 hours
Method: (§3) Cultures of a S. aureus expressing an agr-GFP reporter were incubated with vehicle (0 μM) or various concentrations of HEJ14 ([…], 250 μM, and 500 μM). The bacterial growth (OD600) and GFP signal intensity (RFU) were measured for a duration of 24 hours at 20-minute intervals. FIG. 6A: Bacterial growth (OD600).
The present study further discovered that the bacterial anti-virulence effects of HEJ14 works on the Gram-positive pathogens, as well. To determine if HEJ14 has an effect on the Gram-positive bacteria Staphylococcus aureus, the present study performed in vitro growth kinetics assays testing various HEJ14 concentrations and measuring OD600 over time.

agr = test: S. aureus agr-GFP reporter expression; type: cell-based, Staphylococcus aureus; settings: stationary phase; HEJ14 125, 250, 500 μM
Method: as §3
FIG. 6B: agr expression as measured by GFP signal intensity (RFU) normalized to OD600.
Since the stringent response in S. aureus induces PSMα production and agr activity is essential for psm expression, the present study used an S. aureus agr reporter strain to elucidate the effect of RelA inhibition on agr expression.

Haemophilus influenzae = test: Susceptibility of planktonic and biofilm H. influenzae strains to kanamycin alone and in combination with HEJ14; type: cell-based
From the text: FIG. 3A: transformation frequency of wild type (Rd) Haemophilus influenzae versus ΔRelA Rd; FIG. 3B: transformation frequency of Rd versus ΔRelA/ΔSpot Rd; FIG. 3C: planktonic treatments: no treatment (left); kanamycin treatment (middle); HEJ14+kanamycin treatment (right). Left=WT Rd; middle=ΔRelA Rd and right=ΔRelA/ΔSpot Rd. FIG. 3D: biofilm treatments: no treatment (left); kanamycin treatment (middle); HEJ14+kanamycin treatment (right). Left=WT Rd; middle=ΔRelA Rd and right=ΔRelA/ΔSpot Rd.
To study the effects of HEJ14, including the risk of resistance mutations arising, the present study constructed single gene knockouts of RelA, SpoT, and MsfI (a gene that provides for survival in phagolysosomes) as well as a double RelA/SpoT knockout in the Gram-negative bacteria Haemophilus influenzae using an overlap PCR mutagenesis strategy.
The present study then evaluated the susceptibility of both planktonic (FIG. 3C) and biofilm cells (FIG. 3D) of WT, ΔRelA and the ΔRelA/ΔSpot H. influenzae strains to kanamycin (kan) alone and in combination with HEJ14. In all cases there was a 2-3 log increase in killing by the combo treatment confirming our initial premise that RelA inhibition would potentiate standard antibiotics.

## O=C(O)Cn1cc(C[C@H]2NC(=O)NC2=O)nn1 [HEJ14, (R)-2-(4-((2,5-dioxoimidazolidin-4-yl)methyl)-1H-1,2,3-triazol-1-yl)acetic acid]
S. aureus
  hemolytic effect of culture supernatants on blood agar plates: reduced hemolytic effect
[1]
  bioluminescence (in vivo bacterial burden): significantly decreased
  lesion size: significantly decreased
P. aeruginosa [2]
  pyocyanin toxin production: decreased pyocyanin production
Escherichia coli C
  E. coli C aggregation: completely absent; also recorded: reduced the amount of E. coli C aggregation
P. aeruginosa [3]
  larvae survived: 95%
P. aeruginosa [4]
  P. aeruginosa virulence in the wax worm model: significantly reduced P. aeruginosa virulence
Staphylococcus aureus
  bacterial growth (OD600): enhanced bacterial growth during the stationary phase
agr
  agr expression (GFP signal normalized to OD600): dose-dependent decrease in agr expression
Haemophilus influenzae; HEJ14 in combination with kanamycin vs kanamycin alone, planktonic and biofilm cells of WT, ΔRelA and ΔRelA/ΔSpot H. influenzae
  increase in killing by the combo treatment: 2-3 log
Haemophilus influenzae; even in ΔRelA strains
  planktonic and biofilm H. influenzae growth: able to inhibit planktonic and biofilm H. influenzae growth
